# Measured values: PMC5736175, “Nicotinic alpha 7 receptor agonists EVP-6124 and BMS-933043, attenuate scopolamine-induced deficits in visuo-spatial paired associates learning” (PLoS ONE, 2017)
# Values joined by “and” are separate entries in the source; they are usually repeats but may differ in a detail not shown here. Equal values may be shown once. “Also recorded” adds a separate entry of the source.
# Tested on: scopolamine-treated cynomolgus monkeys
# Assay: Scopolamine-induced impairment of vsPAL task performance, treatment + scopolamine
# Type: in vivo, cynomolgus monkeys (Macaca Fasicularis)
# Conditions: for Cohen's d / effect r: 4-stimuli; for mean (cohen's d calculations): eventual correct; for % Completion / Average Response Latency (Avg Rsp Lat) / Eventual Correct, 2 Stimuli / Eventual Correct, 3 Stimuli / Eventual Correct, 4 Stimuli / Eventual Correct, Overall Mean % Correct / Initial Correct, 3 Stimuli / Initial Correct, 4 Stimuli / Initial Correct, Overall Mean % Correct / Initial correct, 2 Stimuli: im + Scopolamine
# [1] = 0.03 mg/kg + scopolamine vs vehicle+scopolamine, eventual accuracy
# [2] = 0.1 mg/kg + scopolamine vs vehicle+scopolamine, eventual accuracy
# [3] = 0.3 mg/kg + scopolamine vs vehicle+scopolamine, eventual accuracy
# [4] = BMS-933043 0.03 mg/kg, group MEAN
# [5] = BMS-933043 0.03 mg/kg, individual animals, 0.03 mg/kg
# [6] = BMS-933043 0.1 mg/kg, group MEAN
# [7] = BMS-933043 0.1 mg/kg, individual animals, 0.1 mg/kg
# [8] = BMS-933043 0.3 mg/kg, group MEAN
# [9] = BMS-933043 0.3 mg/kg, individual animals, 0.3 mg/kg
# [10] = BMS-933043 1.0 mg/kg, group MEAN
# [11] = BMS-933043 1.0 mg/kg, individual animals, 1 mg/kg
# [12] = all doses of the study, for EVP-6124 study (1)
# [13] = compound 0.03 mg/kg i.m. + Scopolamine
# [14] = compound 0.10 mg/kg i.m. + Scopolamine
# [15] = compound 0.30 mg/kg i.m. + Scopolamine
# [16] = compound 1.00 mg/kg i.m. + Scopolamine
smiles,measurement,setting,value
"c1cn(-c2cc(NC3=NC[C@@]4(CN5CCC4CC5)O3)ncn2)cn1 [BMS-933043, (2R)-N-(6-(1H-imidazol-1-yl)-4-pyrimidinyl)-4'H-spiro[4-azabicyclo[2.2.2]octane-2,5'-[1, 3]oxazol]-2'-amine]",Cohen's d,[1],0.64
same,effect r,[1],0.306
same,Cohen's d,"0.03 mg/kg + scopolamine vs vehicle+scopolamine, eventual accuracy, listed as 933043",0.643
same,Cohen's d,[2],0.73
same,effect r,[2],0.343
same,Cohen's d,"0.1 mg/kg + scopolamine vs vehicle+scopolamine, eventual accuracy, listed as 933043",0.7311
same,Cohen's d,[3],1.2
same,effect r,[3],0.51
same,effect on scopolamine-induced impairment of eventual accuracy,"0.03, 0.1 and 0.3 mg/kg i.m., 4-stimuli condition",significantly ameliorated; also recorded: significantly reversed
same,mean (cohen's d calculations),"0.03 mpk + scop, 4-stimuli condition",81.7
same,mean (cohen's d calculations),"0.1 mpk + scop, 4-stimuli condition",81.4
same,mean (cohen's d calculations),"0.3 mpk + scop, 4-stimuli condition",90.0
same,% Completion,[4],80.9%
same,Average Response Latency (Avg Rsp Lat),[4],2008.1 ms
same,"Eventual Correct, 2 Stimuli",[4],100.0%
same,"Eventual Correct, 3 Stimuli",[4],88.6%
same,"Eventual Correct, 4 Stimuli",[4],81.7%
same,"Eventual Correct, Overall Mean % Correct",[4],89.8%
same,"Initial Correct, 3 Stimuli",[4],58.6%
same,"Initial Correct, 4 Stimuli",[4],38.3%
same,"Initial Correct, Overall Mean % Correct",[4],63.6%
same,"Initial correct, 2 Stimuli",[4],90.0%
same,"Eventual Correct, 2 Stimuli","BMS-933043 0.03 mg/kg, individual animals",100.0%
same,% Completion,[5],81.8% and 100.0% and 81.3% and 32.1% and 72.4% and 98.5%
same,Average Response Latency (Avg Rsp Lat),[5],2181.5 ms and 1558.2 ms and 1198.4 ms and 2787.4 ms and 1505.0 ms and 2151.4 ms and 2675.1 ms
same,"Eventual Correct, 3 Stimuli",[5],90.0% and 100.0% and 50.0%
same,"Eventual Correct, 4 Stimuli",[5],100.0% and 90.0% and 40.0% and 80.0%
same,"Eventual Correct, Overall Mean % Correct",[5],96.7% and 76.7% and 100.0% and 75.0% and 90.0% and 93.3%
same,"Initial Correct, 3 Stimuli",[5],70.0% and 60.0% and 40.0% and 80.0% and 20.0%
same,"Initial Correct, 4 Stimuli",[5],40.0% and 10.0% and 80.0% and 20.0%
same,"Initial Correct, Overall Mean % Correct",[5],70.0% and 66.7% and 56.7% and 76.7% and 65.0% and 40.0%
same,"Initial correct, 2 Stimuli",[5],100.0% and 90.0% and 80.0%
same,% Completion,[6],84.8%
same,Average Response Latency (Avg Rsp Lat),[6],1958.7 ms
same,"Eventual Correct, 2 Stimuli",[6],100.0%
same,"Eventual Correct, 3 Stimuli",[6],98.6%
same,"Eventual Correct, 4 Stimuli",[6],81.4%
same,"Eventual Correct, Overall Mean % Correct",[6],93.3%
same,"Initial Correct, 3 Stimuli",[6],75.7%
same,"Initial Correct, 4 Stimuli",[6],35.7%
same,"Initial Correct, Overall Mean % Correct",[6],66.7%
same,"Initial correct, 2 Stimuli",[6],88.6%
same,"Eventual Correct, 2 Stimuli","BMS-933043 0.1 mg/kg, individual animals",100.0%
same,% Completion,[7],83.0% and 98.5% and 77.8% and 81.4% and 55.7% and 97.1% and 100.0%
same,Average Response Latency (Avg Rsp Lat),[7],1783.8 ms and 1549.9 ms and 1223.3 ms and 2854.5 ms and 1899.4 ms and 1717.2 ms and 2683.0 ms
same,"Eventual Correct, 3 Stimuli",[7],90.0% and 100.0%
same,"Eventual Correct, 4 Stimuli",[7],90.0% and 80.0% and 70.0% and 60.0% and 100.0%
same,"Eventual Correct, Overall Mean % Correct",[7],93.3% and 90.0% and 86.7% and 100.0% and 96.7%
same,"Initial Correct, 3 Stimuli",[7],80.0% and 60.0% and 70.0% and 90.0% and 100.0%
same,"Initial Correct, 4 Stimuli",[7],50.0% and 10.0% and 40.0% and 30.0% and 70.0%
same,"Initial Correct, Overall Mean % Correct",[7],76.7% and 53.3% and 66.7% and 90.0% and 60.0%
same,"Initial correct, 2 Stimuli",[7],100.0% and 90.0% and 80.0%
same,% Completion,[8],86.7%
same,Average Response Latency (Avg Rsp Lat),[8],1774.3 ms
same,"Eventual Correct, 2 Stimuli",[8],100.0%
same,"Eventual Correct, 3 Stimuli",[8],94.3%
same,"Eventual Correct, 4 Stimuli",[8],90.0%
same,"Eventual Correct, Overall Mean % Correct",[8],94.3%
same,"Initial Correct, 3 Stimuli",[8],68.6%
same,"Initial Correct, 4 Stimuli",[8],45.0%
same,"Initial Correct, Overall Mean % Correct",[8],67.6%
same,"Initial correct, 2 Stimuli",[8],91.4%
same,"Eventual Correct, 2 Stimuli","BMS-933043 0.3 mg/kg, individual animals",100.0%
same,% Completion,[9],86.3% and 100.0% and 97.7% and 32.1% and 95.8% and 95.1%
same,Average Response Latency (Avg Rsp Lat),[9],1690.5 ms and 1666.2 ms and 1269.7 ms and 2215.8 ms and 1344.9 ms and 1971.0 ms and 2262.1 ms
same,"Eventual Correct, 3 Stimuli",[9],100.0% and 60.0%
same,"Eventual Correct, 4 Stimuli",[9],80.0% and 100.0% and 90.0%
same,"Eventual Correct, Overall Mean % Correct",[9],93.3% and 100.0% and 80.0% and 96.7%
same,"Initial Correct, 3 Stimuli",[9],80.0% and 100.0% and 60.0% and 10.0% and 90.0%
same,"Initial Correct, 4 Stimuli",[9],60.0% and 40.0% and 50.0% and 30.0%
same,"Initial Correct, Overall Mean % Correct",[9],80.0% and 73.3% and 83.3% and 30.0% and 60.0%
same,"Initial correct, 2 Stimuli",[9],100.0% and 50.0% and 90.0%
same,% Completion,[10],71.6%
same,Average Response Latency (Avg Rsp Lat),[10],2029.0 ms
same,"Eventual Correct, 2 Stimuli",[10],100.0%
same,"Eventual Correct, 3 Stimuli",[10],97.1%
same,"Eventual Correct, 4 Stimuli",[10],65.7%
same,"Eventual Correct, Overall Mean % Correct",[10],87.6%
same,"Initial Correct, 3 Stimuli",[10],71.4%
same,"Initial Correct, 4 Stimuli",[10],41.4%
same,"Initial Correct, Overall Mean % Correct",[10],69.5%
same,"Initial correct, 2 Stimuli",[10],95.7%
same,"Eventual Correct, 2 Stimuli","BMS-933043 1.0 mg/kg, individual animals",100.0%
same,% Completion,[11],72.7% and 100.0% and 68.1% and 56.9% and 46.1% and 57.8%
same,Average Response Latency (Avg Rsp Lat),[11],2028.1 ms and 1536.5 ms and 1283.2 ms and 2484.6 ms and 1934.3 ms and 2639.0 ms and 2297.3 ms
same,"Eventual Correct, 3 Stimuli",[11],90.0% and 100.0%
same,"Eventual Correct, 4 Stimuli",[11],70.0% and 100.0% and 40.0% and 50.0% and 30.0%
same,"Eventual Correct, Overall Mean % Correct",[11],86.7% and 96.7% and 80.0% and 83.3% and 76.7% and 90.0% and 100.0%
same,"Initial Correct, 3 Stimuli",[11],50.0% and 80.0% and 90.0% and 70.0%
same,"Initial Correct, 4 Stimuli",[11],40.0% and 60.0% and 20.0% and 30.0% and 80.0%
same,"Initial Correct, Overall Mean % Correct",[11],63.3% and 76.7% and 60.0% and 86.7%
same,"Initial correct, 2 Stimuli",[11],100.0% and 90.0%
same,"Holm-Sidak Post-Hoc, Treatment+Scopolamine differs from Vehicle+Scopolamine: percent correct on initial attempt, 3-stimuli",all doses of the study,n.s.
same,"Holm-Sidak Post-Hoc, Treatment+Scopolamine differs from Vehicle+Scopolamine: Choice Response Latency",[12],n.s.
same,"Holm-Sidak Post-Hoc, Treatment+Scopolamine differs from Vehicle+Scopolamine: Percent Task Completed",[12],n.s.
same,"Holm-Sidak Post-Hoc, Treatment+Scopolamine differs from Vehicle+Scopolamine: percent correct on initial attempt, 2-stimuli",[12],n.s.
same,"Holm-Sidak Post-Hoc, Treatment+Scopolamine differs from Vehicle+Scopolamine: percent correct on initial attempt, 4 stimuli",[12],n.s.
same,"Percent Correct on Initial Attempt (SEM), 2 stimuli",[13],90.0% (3.1%)
same,"Percent Correct on Initial Attempt (SEM), 3 stimuli",[13],58.6% (8.0%)
same,"Percent Correct on Initial Attempt (SEM), 4 stimuli",[13],38.3% (9.8%)
same,"Percent Correct on Initial Attempt (SEM), 2 stimuli",[14],88.6% (3.4%)
same,"Percent Correct on Initial Attempt (SEM), 3 stimuli",[14],75.7% (5.7%)
same,"Percent Correct on Initial Attempt (SEM), 4 stimuli",[14],35.7% (8.1%)
same,"Percent Correct on Initial Attempt (SEM), 2 stimuli",[15],91.4% (7.0%)
same,"Percent Correct on Initial Attempt (SEM), 3 stimuli",[15],68.6% (11.2%)
same,"Percent Correct on Initial Attempt (SEM), 4 stimuli",[15],45.0% (5.6%)
same,"Percent Correct on Initial Attempt (SEM), 2 stimuli",[16],95.7% (2.0%)
same,"Percent Correct on Initial Attempt (SEM), 3 stimuli",[16],71.4% (5.9%)
same,"Percent Correct on Initial Attempt (SEM), 4 stimuli",[16],41.4% (8.3%)
same,dose/exposure range across which efficacy was retained,"eventual accuracy, scopolamine vsPAL",≥ 10 fold
same,Cohen's D values at maximally efficacious doses,large treatment effect sizes,> 8
